Test results published in US5153352A, “Process for preparation of intermediates of carbocyclic nucleoside analogs” (priority 1990, dated 1992).
Values after ≈ are worked out from the molar mass of the structure shown. Values joined by “and” are separate entries in the source; they are usually repeats but may differ in a detail not shown here. Identical values can stand only once. Counter-ions that a name gives are not always drawn.

How the values were obtained:
[1] = drug cytotoxicity in Vero cells (CPE-inhibition assay); conditions: monkey, vero cells, MTC (minimum drug concentration causing any cytotoxicity), Vero
Vero cells = experiment: as above; conditions: Vero
[2] = test system: Herpes simplex type 2 (HSV-2) strain MS; experiment: CPE-inhibition assay, HSV-2 strain MS in Vero cells; conditions: for TI (Therapeutic Index, MTC/ID50) / VR (Virus Rating): HSV-2 (MS), Vero; for EC50: Human alphaherpesvirus 2, Vero, read-out: ID50 (minimum drug concentration that inhibited the CPE by 50%), HSV-2 (MS), Vero; for VR (Virus Rating): >1.0 definite, 0.5-0.9 marginal to moderate, <0.5 no significant activity
[3] = test system: Herpes simplex type 1 (HSV-1) strain E-377; experiment: CPE-inhibition assay, HSV-1 strain E-377 in Vero cells; conditions: for TI (Therapeutic Index, MTC/ID50) / VR (Virus Rating): HSV-1 (E-377), Vero; for EC50: Human alphaherpesvirus 1, Vero, read-out: ID50 (minimum drug concentration that inhibited the CPE by 50%), HSV-1 (E-377), Vero; for VR (Virus Rating): >1.0 definite, 0.5-0.9 marginal to moderate, <0.5 no significant activity
[4] = test system: Human Immunodeficiency Virus (HIV-1); experiment: anti-HIV-1 protection of ATH8 cells (method of Mitsuya and Broder); type: cell-based; conditions: Human immunodeficiency virus 1, ATH-8, HIV-1, ATH8 cells, read-out: Protective Effect
From the text: The method of Mitsuya and Broder (AIDS: Modern Concepts and Therapeutic Challenges; Broder, S. ED.; Marcel Dekker, Inc.; New York, 1987; Chapter 18) was used to determine the in vitro anti-HIV-1 and anti-HIV-2 activity in ATH8 cells of some compounds of the invention. The results of the test are expressed as the percentage of ATH8 cells that were protected from the cytopathogenic effects of HIV at various concentrations of the compound of the invention.

[5] = cytotoxicity in ATH8 cells (method of Mitsuya and Broder); type: cell-based; conditions: human, HIV-1 experiment
From the text: The method of Mitsuya and Broder (AIDS: Modern Concepts and Therapeutic Challenges; Broder, S. ED.; Marcel Dekker, Inc.; New York, 1987; Chapter 18) was used to determine the in vitro anti-HIV-1 and anti-HIV-2 activity in ATH8 cells of some compounds of the invention. […]

HSV-2 = experiment: plaque reduction, HSV-2 in Vero cells; type: cell-based, Herpes simplex virus type 2; conditions: Human alphaherpesvirus 2; HSV-2, Vero, plaque reduction 50%; read-out: MIC50
Procedure: (§1) After the adsorption period, the infected cell monolayers were treated in duplicate with serial dilutions of the test compound. Duplicate cell controls containing medium alone and virus controls containing medium and virus were run simultaneously with the test compound. […] Plaques visible to the unaided eye were counted and the mean number of plaques in the duplicate wells for each compound concentration tested and for the untreated, virus infected controls were determined.

HSV-1(123) = experiment: plaque reduction, HSV-1(123) in Vero cells; type: cell-based, Herpes simplex virus type 1; conditions: Human alphaherpesvirus 1, plaque reduction 50%, read-out: MIC50
Procedure: as §1

HSV-1(E-377) = experiment: plaque reduction, HSV-1(E-377) in Vero cells; type: cell-based, Herpes simplex virus type 1; conditions: Human alphaherpesvirus 1, plaque reduction 50%, read-out: MIC50
Procedure: as §1

[6] = MTT cytotoxicity assay in MRC5 cells; type: cell-based; conditions: human
Procedure: (§2) Human diploid embryonic lung (MRC5) cells were grown in 35 mm wells of 6-well tissue culture plates. Subconfluent cell monolayers were rinsed with phosphate buffered saline (PBS) and were exposed to 0.5 ml/well of HCMV (strain AD169) suspension for 1.5 hours at 37° C. The virus suspension was diluted in MEM+2% fetal bovine serum (FBS) to yield a multiplicity of infection (MOI) of approximately 0.1 plaque forming units (PFU)/cell. Following the virus adsorption period, the inocula were removed and infected cell layers were rinsed with PBS. Aliquots (2.0 ml) of each test drug concentration (dissolved in MEM supplemented with 2% FBS) were dispensed into triplicate cell cultures: two virus infected cultures and one uninfected cytotoxicity control culture (exposed to medium without virus for 1.5 hours). Untreated virus infected control cultures and untreated, uninfected cell control cultures were fed with medium alone.
(§3) All cell culture fluids were replaced with fresh drug and medium 48 hours postinfection (p.i.).
Drug cytotoxicity was determined quantitatively by a method based on the reduction of the tetrazolium salt, 3-(4,5-dimethyl-thiazol-2-yl)-2,5-diphenyl tetrazolium bromide (MTT) by mitochondrial enzymes of viable host cells to MTT formazan (T. Mosmann, 1983). Drug cytotoxicity controls and cell controls were treated with MTT (dissolved in culture medium) followed by 20% SDS (in 0.02 N HCl) to dissolve the crystals of MTT formazan. The blue color of the MTT formazan was measured spectrophotometrically at 570 nm. Drug cytotoxicity was determined by comparing the absorbance (O.D.) of each drug cytotoxicity control with the mean O.D. of the cell control cultures and expressed as percent of control.

A549: Lung carcinoma = experiment: cytotoxic activity against cultured tumor cells, A549; type: cell-based; conditions: Homo sapiens, 72 h; A549, 3 days, MTT
[7] = test system: P388D1: Lymphocytic Leukemia; experiment: cytotoxic activity against cultured tumor cells, P388-D1; type: cell-based; conditions: Mus musculus, P388D1, 72 h; P388-D1, 3 days, MTT
[8] = test system: HCT8: Adenocarcinoma, ileocecal; experiment: cytotoxic activity against cultured tumor cells, HCT-8; type: cell-based; conditions: Homo sapiens, 72 h; HCT-8, 3 days, MTT
[9] = test system: Human Cytomegalovirus (HCMV); experiment: HCMV virus yield reduction assay in MRC5 cells; type: cell-based, Human cytomegalovirus (strain AD169)
Procedure: as §2, §3
On Day 6 p.i., the cell layers were examined microscopically for cytopathogenic effect (CPE) and drug cytotoxicity. The test and virus control cultures were then harvested by subjecting the cell layers to one cycle of freeze-thawing.
The harvested test and virus control samples were thawed and the infectious virus yield was determined by plaque assay in MRC5 cells grown in 12-well cluster plates. Inhibition of HCMV replication by each test compound was determined by comparing the progeny virus yields in the drug-treated cultures with the progeny virus yield in the untreated, virus infected control cultures.

Structure (SMILES)	EC50 [2] [µg/mL]	EC50 [3] [µg/mL]	MCC ([1]; HSV-1 (E-377) experiment) [µg/mL]	MCC ([1]; HSV-2 (MS) experiment) [µg/mL]	TI (Therapeutic Index, MTC/ID50) [2]	VR (Virus Rating) [2]	TI (Therapeutic Index, MTC/ID50) [3]	VR (Virus Rating) [3]	other results
Nc1nc(Cl)c2ncn(C3CC(CO)C3CO)c2n1 (centres unmarked) [Example 1H, 3-(2'-Amino-6'-chloro-9'H-purin-9'-yl)-1,2-bis(hydroxymethyl)cyclobutane]	179 (≈ 631 µM)	83 (≈ 293 µM)	320	320					MTC (minimum drug concentration causing any cytotoxicity) (Vero cells; HSV-1 (E-377) experiment): 320 µg/mL; MTC (minimum drug concentration causing any cytotoxicity) (Vero cells; HSV-2 (MS) experiment): 320 µg/mL; TI (Therapeutic Index, MTC/ID50) ([2]; listed as 1.5H): 1.8 and 1.5; TI (Therapeutic Index, MTC/ID50) ([3]; listed as 1.5H): 3.9 and 3.6
Nc1ccn(C2CC(CO)C2CO)c(=O)n1 (centres unmarked) [Example 3, 1-(2',3'-Bis(hydroxymethyl)cyclobutyl)cytosine]	50.5 (≈ 224 µM)	10.1 (≈ 44.7 µM)	320	320	6.34	2.0	31.8	3.6	
Nc1nc(N)c2ncn(C3CC(CO)C3CO)c2n1 (centres unmarked) [Example 6, 3-(2',6'-Diamino 9'H-purin-9'-yl)-1,2-bis(hydroxymethyl)cyclobutane]	71.8 (≈ 272 µM)	31.7 (≈ 120 µM)	320	320	4.5	1.6	10.1	2.4	inhibition at 1 µM ([4]; 1 uM): 21%; inhibition at 10 µM ([4]; 10 uM): 48%; inhibition at 100 µM ([4]; 100 uM): 46%; inhibition at 500 µM ([4]; 500 uM): 57%; cytotoxicity at 1 µM ([5]; 1 uM): 0%; cytotoxicity at 10 µM ([5]; 10 uM): 4%; cytotoxicity at 100 µM ([5]; 100 uM): 32%; cytotoxicity at 500 µM ([5]; 500 uM): 38%
Nc1ncc2ncn(C3CC(CO)C3CO)c2n1 (centres unmarked) [Example 7, 3-(2'-Amino-9'H-purin-9'-yl)-1,2-bis(hydroxymethyl)cyclobutane]		271 (≈ 1090 µM)	320				1.2	0.55	
CC(=O)OCC1CC(n2cnc3c(=O)[nH]c(N)nc32)C1COC(C)=O (centres unmarked) [Example 20, 9-(2,'3,'-Bis(acetoxymethyl)cyclobutyl)guanine]	15.7 (≈ 44.9 µM)	12.1 (≈ 34.6 µM)	100	100	6.4	1.9	8.2	2.2	
NCC1CC(n2cnc3c(Cl)ncnc32)C1 (centres unmarked) [Example 21, 3-(6'-Chloro-9'H-purin-9'-yl)-aminomethylcyclobutane hydrochloride]	75	88	320	320	4.3	1.2	3.6	1.0	
Nc1nc2c(nc(Br)n2C2CC(CO)C2CO)c(=O)[nH]1 (centres unmarked) [Example 23]		100 (≈ 291 µM)	> 320	> 320		0.7	3.2	1.7	
Nc1nc2c(ncn2C2CC(CO)C2O)c(=O)[nH]1 (centres unmarked) [Example 42P, 9-(2'-hydroxy-3'-hydroxymethyl-1'-cyclobutyl)guanine]									EC50 (HSV-2): 1 µg/mL (≈ 3.98 µM); EC50 (HSV-1(123)): 3 µg/mL (≈ 11.9 µM); EC50 (HSV-1(E-377)): 1 µg/mL (≈ 3.98 µM)
OCC1CC(n2ccc3c(Cl)ncnc32)C1CO (centres unmarked) [Example 67B, 4-Chloro-7-(2',3'-bis(hydroxymethyl)cyclobutyl)-7H-pyrrolo[2,3-d]pyrimidine]									viability ([6]; 10 ug/ml): 86%; viability ([6]; 32 ug/ml): 68%; IC50 (A549: Lung carcinoma): 18.8 µg/mL (≈ 70.2 µM); IC50 [7]: 4.9 µg/mL (≈ 18.3 µM); IC50 [8]: 0.63 µg/mL (≈ 2.35 µM); HCMV yield ([9]; 3.2 ug/ml): 4.9 log10 PFU/ml; HCMV yield ([9]; 10 ug/ml): 4.0 log10 PFU/ml; HCMV yield ([9]; 32 ug/ml): 3.1 log10 PFU/ml; log reduction at 3.2 µg/mL ([9]; Human betaherpesvirus 5, 144 h, 3.2 ug/ml): 0.4; log reduction at 10 µg/mL ([9]; Human betaherpesvirus 5, 144 h, 10 ug/ml): 1.3; log reduction at 32 µg/mL ([9]; Human betaherpesvirus 5, 144 h, 32 ug/ml): 2.2
Nc1ncnc2c1c(Br)cn2C1CC(CO)C1CO (centres unmarked) [Example 67F, 4-Amino-9-bromo-7-(2',3'-bis(hydroxymethyl)cyclobutyl)-7H-pyrrolo[2,3-d]pyrimidine]									IC50 (A549: Lung carcinoma): 3.1 µg/mL (≈ 9.47 µM); IC50 [7]: 5.2 µg/mL (≈ 15.9 µM); IC50 [8]: 5.9 µg/mL (≈ 18 µM)

Further lines, with some results ahead:

EC50 [2] [µg/mL]	EC50 [3] [µg/mL]	Structure (SMILES)	MCC ([1]; HSV-1 (E-377) experiment) [µg/mL]	MCC ([1]; HSV-2 (MS) experiment) [µg/mL]	TI (Therapeutic Index, MTC/ID50) [2]	VR (Virus Rating) [2]	TI (Therapeutic Index, MTC/ID50) [3]	VR (Virus Rating) [3]	other results
54.7 (≈ 229 µM)		OCC1CC(n2cnc3c(Cl)ncnc32)C1 (centres unmarked) [Example 8E, 3-(6'-chloro-9'H-purin-9'-yl)cyclobutanemethanol]	320	100	1.8	1.35		0.9	
14.9 (≈ 43 µM)	11.1 (≈ 32 µM)	OCC1CC(n2cc(Br)c3c(Cl)ncnc32)C1CO (centres unmarked) [Example 67C]	32	32	2.1	0.9	2.9	1.2	IC50 (A549: Lung carcinoma): 18.4 µg/mL (≈ 53.1 µM); IC50 [7]: 16.4 µg/mL (≈ 47.3 µM); IC50 [8]: 4.3 µg/mL (≈ 12.4 µM)
